Measured values taken from PMC8623273, “Novel N7-Arylmethyl Substituted Dinucleotide mRNA 5′ cap Analogs: Synthesis and Evaluation as Modulators of Translation” (Pharmaceutics, 2021).
Read-outs that look alike come from different tables or passages of the source.

What was measured:
[1] = target: eukaryotic translation initiation factor 4E (eIF4E) (Mus musculus, UniProt P63073); assay: pyrene-probe fluorescent competitive-binding assay (PyFLINT-B) for cap analog-eIF4E; details: for EC50: Table S2; for Kd: pyrene-based high-throughput competition assay, 30 °C, KD calculated from EC50, read-out: KD Cap-eIF4E ± SD; for effect of the N7 substituent on eIF4E binding (in words): compared to m^7GpppG / 1a or unmodified counterpart
Sequence of eukaryotic translation initiation factor 4E (eIF4E) (P63073 whole entry): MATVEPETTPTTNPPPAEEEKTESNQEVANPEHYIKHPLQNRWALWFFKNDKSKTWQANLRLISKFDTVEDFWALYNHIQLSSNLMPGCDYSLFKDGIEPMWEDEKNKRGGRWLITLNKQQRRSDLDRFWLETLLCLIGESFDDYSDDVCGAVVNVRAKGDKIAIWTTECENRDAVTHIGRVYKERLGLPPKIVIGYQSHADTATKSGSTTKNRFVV
Excerpt: High affinity for eIF4E is a desirable feature of cap analogs designed for modulating translation, either as small molecules or as a part of mRNA. Thus, we studied how different substituents at the N7-position affected eIF4E-cap interaction. To this end, we first determined the affinity of m^7GpppG and Bn^7GpppG (1a) using time-synchronized fluorescence quenching titration, a very precise and well-established, but low-throughput method. Next, to evaluate the whole set of the synthesized compounds (1a–1r), we used a high-throughput competitive-binding assay based on a pyrene-labeled fluorescent probe. From this assay we determined relative affinities of the compounds represented by half-effective concentrations (EC50) (Figure 3A–C), which were then used to calculate dissociation constant (KD) values for cap analog–eIF4E complexes using previously reported equations (Table 2, Figure 3D).
To determine the dissociation constants of the library of N7-benzylated dinucleotide 5′ cap analogs for translation initiation factor 4E, a fluorescent competitive-binding assay (PyFLINT-B) was applied as previously described. The experiments were performed on a Synergy™ H1 plate reader in 96-well, black, non-binding assay plates. Each well contained an appropriate buffer (50 mM Hepes/KOH pH 7.2, 100 mM KCl and 0.5 mM EDTA), pyrene probe m^7Gp5C4Py (10 nM), substrate (in half-logarithmic dilutions from 850 μM to 0.03 μM for compound 1m and from 100 μM to 0.003 μM for m^7GpppG and the rest of the compounds) and protein eIF4E (75 nM). The m^7Gp5C4Py was synthesized as describer earlier. The pyrene probe was dissolved in water and concentration was determined spectrometrically at 345 nm using the extinction coefficient (21,000 M^−1 cm^−1). The eIF4E protein was centrifuged after defrosting (5 min, 4 °C, 10k rcf) and its concentration was determined spectrometrically at 280 nm using the extinction coefficient (52,940 M^−1 cm^−1). The reaction mixtures were preincubated (15 min, 300 rpm, 30 °C). All measurements were performed at 30 °C and the fluorescence detection at 345 nm excitation and 378 nm emission was recorded.
To determine EC50 values, GraphPad Prism 9.1.2 software was used. To fit the curves to the obtained data we used the following formula:(1) Y=Bottom+ Top−Bottom/1+ X/EC50 where: X, cap analog (ligand) concentration; EC50, concentration of the cap analog resulting in half-maximal response from the fluorescent probe–protein complex; Bottom, minimal signal from the negative control, which contains only the free probe; Top, maximal signal from the positive control, the mixture of the protein and the fluorescent probe.
The dissociation constants KD were then calculated using the equation described by Nikolovska-Coleska et al.:(2) KD=EC50−Pt+PL50KD_probe/L50+1/L50/KD_probe+P0/KD_probe+1 where: EC50, concentration of the cap analog resulting in half-maximal response from the fluorescent probe–protein complex; [Pt], total protein concentration; [PL]50, concentration of the probe–protein complex at 50% inhibition; KD_probe, dissociation constant of the complex between the fluorescent probe and the protein; [L]50, probe concentration at 50% inhibition; [P]0, free protein concentration at 0% inhibition.

[2] = tested on: cap-dependent translation in rabbit reticulocyte lysate (RRL); assay: inhibition of cap-dependent translation in rabbit reticulocyte lysate (RRL); assay type: biochemical
Protocol: After determining the affinity for eIF4E and susceptibility to DcpS, we evaluated the analogs as inhibitors of protein translation in rabbit reticulocyte lysates (RRL). To enable better assessment of how these two factors influenced inhibitory properties, we performed two sets of experiments. In the first set, cap analogs were added to RRL along with luciferase-encoding reporter mRNA followed by a protein activity (luminescence) readout after 1 h, whereas in the second set cap analogs were additionally preincubated in RRL for 1 h prior to addition of mRNA. Based on previously reported findings, we expected that in the second experimental setup, cap analogs susceptible to DcpS would lose their inhibitory potency, whereas compounds resistant to DcpS would remain similarly active.
The ability of the N7-benzyl cap analogues to inhibit cap-dependent translation was assayed in a rabbit reticulocyte lysate (RRL) system. Two sets of experiments were performed. In both variants, in vitro translation reactions (10 μL total volume) contained a tested cap analog (inhibitor) and an in vitro transcribed, ARCA-capped mRNA encoding Gaussia luciferase at 1 μg/mL final concentration. In experimental variant A, cap analogues at concentrations in the range of 0 to 64 μM and mRNA were added to the reaction mixture at the same time. Reactions were incubated at 30 °C for 60 min and then stopped by freezing in liquid nitrogen. In experimental variant B, the cap analogues were added at concentrations in the range of 0 to 160 μM. Reactions were pre-incubated at 30 °C for 60 min prior to addition of mRNA; after addition of mRNA incubation was continuous at 30 °C for 60 min and then stopped by freezing in liquid nitrogen. To detect luminescence from Gaussia luciferase, 50 μL of 10 ng/mL h-coelenterazine (NanoLight, Norman, OK, USA) in PBS was added to 10 μL of RRL and the luminescence was measured with a Synergy H1 (BioTek, Winooski, VT, USA) microplate reader.

[3] = RRL, cap analog and mRNA added at the same time (no pre-incubation), 60 min, 30 °C, read-out: Translation Inhibition IC50
[4] = cap analog incubated in RRL for 1 h prior to adding mRNA, read-out: Translation Inhibition IC50 (value in brackets) (converted)

Structure (SMILES)	EC50 [1]	Kd [1]	IC50 [2, 3]	IC50 [2, 4]	effect of the N7 substituent on eIF4E binding (in words) [1]
Cc1cccc(C[n+]2cn([C@@H]3O[C@H](COP(=O)(O)OP(=O)([O-])OP(=O)(O)OC[C@H]4O[C@@H](n5cnc6c(=O)[nH]c(N)nc65)[C@H](O)[C@@H]4O)[C@@H](O)[C@H]3O)c3nc(N)nc(O)c32)c1 [1c, 3-MeBn^7GpppG]	3.7 µM	0.319 ± 0.055 µM	6.6 ± 0.8 µM	8.2 µM	
Nc1nc(O)c2c(n1)n([C@@H]1O[C@H](COP(=O)(O)OP(=O)([O-])OP(=O)(O)OC[C@H]3O[C@@H](n4cnc5c(=O)[nH]c(N)nc54)[C@H](O)[C@@H]3O)[C@@H](O)[C@H]1O)c[n+]2Cc1ccc(C(F)(F)F)cc1 [1l, 4-CF3-Bn^7GpppG]		0.293 ± 0.043 µM	9.7 ± 2 µM	40 µM	
Nc1nc(O)c2c(n1)n([C@@H]1O[C@H](COP(=O)(O)OP(=O)([O-])OP(=O)(O)OC[C@H]3O[C@@H](n4cnc5c(=O)[nH]c(N)nc54)[C@H](O)[C@@H]3O)[C@@H](O)[C@H]1O)c[n+]2Cc1ccc(Cl)cc1 [1h, 4-Cl-Bn^7GpppG]	2.6 µM	0.221 ± 0.037 µM	18.7 ± 3 µM	18.7 ± 3.6 µM	
Nc1nc(O)c2c(n1)n([C@@H]1O[C@H](COP(=O)(O)OP(=O)([O-])OP(=O)(O)OC[C@H]3O[C@@H](n4cnc5c(=O)[nH]c(N)nc54)[C@H](O)[C@@H]3O)[C@@H](O)[C@H]1O)c[n+]2Cc1ccccc1 [1a, Bn^7GpppG]		0.217 ± 0.036 µM	7.4 ± 1.4 µM	9.6 µM	
Nc1nc(O)c2c(n1)n([C@@H]1O[C@H](COP(=O)(O)OP(=O)([O-])OP(=O)(O)OC[C@H]3O[C@@H](n4cnc5c(=O)[nH]c(N)nc54)[C@H](O)[C@@H]3O)[C@@H](O)[C@H]1O)c[n+]2Cc1ccc([N+](=O)[O-])cc1 [1n, 4-NO2-Bn^7GpppG]	4.3 µM	0.367 ± 0.071 µM	28.2 ± 7.5 µM		accepted by the protein
CO[C@@H]1[C@H](O)[C@@H](COP(=O)(O)OP(=O)([O-])OP(=O)(O)OC[C@H]2O[C@@H](n3cnc4c(=O)[nH]c(N)nc43)[C@H](O)[C@@H]2O)O[C@H]1n1c[n+](Cc2ccc(Cl)cc2)c2c(O)nc(N)nc21 [1r, 4-Cl-Bn^7GmpppG]	1.6 µM	0.132 ± 0.02 µM	6 ± 0.9 µM		twofold increase in cap-binding affinity
CO[C@@H]1[C@H](O)[C@@H](COP(=O)(O)OP(=O)([O-])OP(=O)(O)OC[C@H]2O[C@@H](n3cnc4c(=O)[nH]c(N)nc43)[C@H](O)[C@@H]2O)O[C@H]1n1c[n+](Cc2ccccc2)c2c(O)nc(N)nc21 [1q, Bn^7GmpppG]	2 µM	0.171 ± 0.025 µM	3.7 ± 0.5 µM	8.2 µM	twofold increase in cap-binding affinity
Nc1nc(O)c2c(n1)n([C@@H]1O[C@H](COP(=O)(O)OP(=O)([O-])OP(=O)(O)OC[C@H]3O[C@@H](n4cnc5c(=O)[nH]c(N)nc54)[C@H](O)[C@@H]3O)[C@@H](O)[C@H]1O)c[n+]2Cc1ccc(F)c(F)c1 [1k, 3,4-di-F-Bn^7GpppG]	5.7 µM	0.489 ± 0.077 µM	8.2 ± 1.1 µM	21.4 µM	
Cn1c[n+]([C@@H]2O[C@H](COP(=O)(O)OP(=O)([O-])OP(=O)(O)OC[C@H]3O[C@@H](n4cnc5c(=O)[nH]c(N)nc54)[C@H](O)[C@@H]3O)[C@@H](O)[C@H]2O)c2nc(N)[nH]c(=O)c21 [m^7GpppG, reference compound]	2.7 ± 0.3 µM	0.229 ± 0.037 µM	11.4 ± 2.4 µM	30.1 µM	
Nc1nc(O)c2c(n1)n([C@@H]1O[C@H](COP(=O)(O)OP(=O)([O-])OP(=O)(O)OC[C@H]3O[C@@H](n4cnc5c(=O)[nH]c(N)nc54)[C@H](O)[C@@H]3O)[C@@H](O)[C@H]1O)c[n+]2Cc1ccc(Br)cc1 [1i, 4-Br-Bn^7GpppG]	2 µM	0.172 ± 0.026 µM	6.4 ± 1 µM	22.2 µM	
Nc1nc(O)c2c(n1)n([C@@H]1O[C@H](COP(=O)(O)OP(=O)([O-])OP(=O)(O)OC[C@H]3O[C@@H](n4cnc5c(=O)[nH]c(N)nc54)[C@H](O)[C@@H]3O)[C@@H](O)[C@H]1O)c[n+]2Cc1ccc(F)cc1 [1g, 4-F-Bn^7GpppG]	3.1 µM	0.261 ± 0.054 µM	6 ± 0.9 µM	21.4 µM	
CC(C)c1ccc(C[n+]2cn([C@@H]3O[C@H](COP(=O)(O)OP(=O)([O-])OP(=O)(O)OC[C@H]4O[C@@H](n5cnc6c(=O)[nH]c(N)nc65)[C@H](O)[C@@H]4O)[C@@H](O)[C@H]3O)c3nc(N)nc(O)c32)cc1 [1e, 4-iPrBn^7GpppG]	6.2 µM	0.534 ± 0.1 µM	15.2 ± 3.1 µM		KD increased more than double
